Assay results: patent publication US20120329860A1, “Uses of Beta-Nicotinamide Adenine Dinucleotide” (MEDICAL COLLEGE OF GEORGIA INSTITUTE, INC, priority 2010, published 2012)

How the values were obtained:
[1] = system: VE-cadherin-positive cell-cell junctions in HPAEC; experiment: VE-cadherin immunofluorescence of HPAEC monolayers; format: cell-based, human; conditions: 50 μM b-NAD, 30 minutes
Protocol: Immunostaining was performed as described (Kolosova et al., 2005, Circ Res 97(2):115-124). The DNA-binding, fluorescent dye 7-amino-actinomycin D (7AAD) was used to stain cell nuclei. The percentage of total cell surface area occupied by VE-cadherin-positive cell-cell junctions was quantitatively determined using Zeiss Microscope quantification Software.

Rac1 = experiment: G-LISA Rac activation assay in HPAEC; format: cell-based, human; conditions: 50 mM β-NAD, time course; basal by 30 min
Protocol: Protein extracts were separated by SDS-PAGE, transferred to nitrocellulose membrane and probed with specific antibodies. Horseradish peroxidase-conjugated goat anti-rabbit IgG antibody (Santa Cruz Biotechnology, Santa Cruz, Calif.) was used as the secondary antibody, and immunoreactive proteins were detected using enhanced chemiluminescence detection kit (ECL) according to the manufacturer's protocol (Amersham, Little Chalfont, UK). For quantification, immunoblot data were analyzed using NIH Image 1.63 software. Active Rac1 was determined using G-LISA Rac activation assay according to the manufacturer's recommendations (Cytoskeleton Inc., Denver, Colo.).

LPS-induced ALI in mice [2] = experiment: BAL total protein in LPS-induced lung injury; format: in vivo; conditions: β-NAD (i.v.) simultaneously with LPS (i.t.), 18 hr
Protocol: Female C57BL/6J mice (8-10 weeks old) weighing 20-25 g were purchased from Charles River Laboratory (Wilmington, Mass.). Animals were housed in plastic cages and had access to food and water. The animals were kept at room temperature and exposed to continuous cycles of 12 hr light and darkness.
Mice were anesthetized with ketamine (150 mg/kg) and acetylpromazine (15 mg/kg) intraperitoneally (i.p.) before the exposure of the trachea via neck incision and intubation with 20-guage catheter and the right internal jugular vein was exposed via right chest incision for PBS or b-NAD installation. The mice were randomly divided into groups. […] Simultaneously, mice received either b-NAD (5.4 mg/kg, equivalent to final calculated plasma concentration […] or PBS in the control group intravenously (i.v.) through the internal jugular vein (IJ). The animals were allowed to recover for 18 hr. EBD was given through the IJ 2 hr prior to termination of the experiment. At termination, bronchoalveolar lavage (BAL) was collected. BAL was 1ml of 10% HBSS through the endotracheal catheter immediately on sacrifice with aspiration. BAL was immediately centrifuged and processed. After the BAL, ethylenediaminetetraacetic acid (EDTA) was used to flush the lungs of blood via the right heart ventricle and the lungs were then harvested. […]

LPS-induced ALI in mice [3] = experiment: Evans Blue Dye-albumin (EBD) lung permeability; format: in vivo
Protocol: (§1) Mice were anesthetized with ketamine (150 mg/kg) and acetylpromazine (15 mg/kg) intraperitoneally (i.p.) before the exposure of the trachea via neck incision and intubation with 20-guage catheter and the right internal jugular vein was exposed via right chest incision for PBS or b-NAD installation. The mice were randomly divided into groups. LPS or sterile saline was instilled intratracheally (i.t.) via a 20-gauge catheter. Simultaneously, mice received either b-NAD (5.4 mg/kg, equivalent to final calculated plasma concentration […] or PBS in the control group intravenously (i.v.) through the internal jugular vein (IJ). The animals were allowed to recover for 18 hr. EBD was given through the IJ 2 hr prior to termination of the experiment. At termination, bronchoalveolar lavage (BAL) was collected. BAL was 1ml of 10% HBSS through the endotracheal catheter immediately on sacrifice with aspiration. BAL was immediately centrifuged and processed. After the BAL, ethylenediaminetetraacetic acid (EDTA) was used to flush the lungs of blood via the right heart ventricle and the lungs were then harvested. BAL and lungs were collected and stored at −70° C. for evaluation of lung injury.
Measurement of EBD concentration in the lungs was performed by injection of EBD (20 mg/kg) into the right internal jugular vein 2 hr before the termination of the experiment to assess the vascular leak. Lungs free of blood were weighed and snap frozen in liquid nitrogen. The left lung was weighed and homogenized, then incubated with two volumes of formamide (18 hr, 60° C.) and centrifuged (5000 g, 30 min, 20° C.). The extravasated EBD concentration (mg/g, lung) in the lung homogenate was calculated against a standard curve. In a separate experiment the EBD was injected into the right internal jugular vein as described above at 2 hrs prior to termination of the experiment and the left lung gross anatomy view was photographed with a Leica NCL150 Camera.

LPS-induced ALI in mice [4] = experiment: BAL cell count; format: in vivo
Protocol: as §1, with “injury. […]” for “injury.”

LPS-induced ALI in mice [5] = experiment: Lung histology (H&E); format: in vivo
Protocol: Lungs perfused free of blood after perfusion with EDTA, were immersed in 5% buffered paraformaldehyde for 18 hr at 4° C. prior to histological evaluation by hematoxylin and eosin staining (H&E staining). The right lung lobes were used for consistency. H&E staining was done by deparafinizing and hydrating the slides to water. The slides were stained in Harris Hematoxylin for 15 min and Eosin for 30 sec. The slides were dehydrated, cleared and mounted with cytoseal.

[6] = system: LPS-induced mortality in mice; experiment: LPS-induced mortality / survival; format: in vivo
Protocol: Mice were injected with β-NAD (100 mg/kg, i.p) or vehicle (saline, i.p) 10 min after LPS (20 mg/kg, i.p) challenge. As a treatment strategy, β-NAD was given twice a day (i.p) for 4 days. […]

Myeloperoxidase (MPO) = Myeloperoxidase (MPO) activity and staining in lungs; format: in vivo, mice
Protocol: MPO is a hemoprotein that is abundantly expressed in polymorphonuclear leukocytes (neutrophils) and secreted during their activation. MPO assay was carried out according to the manufacturer's assay protocol (Cayman Chemicals). Lungs of vehicle, LPS or LPS/b-NAD treated mice were used for the MPO assay. Lungs (free of blood) were weighed and snap frozen in liquid nitrogen. The left lung was weighed and homogenized in the lysis buffer and then centrifuged (12,000×g, 30 min). The protein from the clear supernatant was estimated and normalized from different treatment and analyzed for the MPO levels by ELISA. Values represent mean±SEM (n=3).

For `NC(=O)C1=CN([C@@H]2O[C@H](COP(=O)(O)OP(=O)(O)OC[C@H]3O[C@@H](n4cnc5c(N)ncnc54)[C@H](O)[C@@H]3O)[C@@H](O)[C@H]2O)C=CC1` [β-NAD, beta-nicotinamide adenine dinucleotide], the “VE-cadherin recruitment to cell-cell junctions” value [1] was “Appreciably more VE-cadherin was recruited to the area of cell-cell junctions”, the “percentage of total cell-surface area occupied by VE-cadherin-positive cell-cell junctions (mean)” value ([1]; 20 cells per group, control 17.42%) was 61.03% and the Rac1 activation (Rac1) was “dramatic β-NAD-dependent activation of Rac1 at early time points”. The “LPS-induced BAL protein accumulation” value (LPS-induced ALI in mice [2]) was “significantly attenuated”, the “EBD leakage into lung parenchyma on gross examination” value (LPS-induced ALI in mice [3]; LPS 0.9 mg/kg i.t. and b-NAD 5.46 mg/kg, 24 hr) was “minimal leakage” and the “EBD-albumin in lung (average)” value (LPS-induced ALI in mice [3]; b-NAD/LPS treated mice) was 10.41 µg/g. The “EBD-albumin in lung (average)” value (LPS-induced ALI in mice [3]; β-NAD/saline control (no LPS)) was 6.54 µg/g, the “total WBCs in BAL fluid” value (LPS-induced ALI in mice [4]; LPS treated mice, BAL at 24 hr) was “reduced total WBCs in BAL fluid” and the “neutrophil count of BAL fluid” value (LPS-induced ALI in mice [4]; LPS/b-NAD compared to LPS only treated mice) was “decrease in neutrophil count”. For the same molecule, the “interstitial edema and infiltration of neutrophils (histology)” value (LPS-induced ALI in mice [5]; LPS/β-NAD vs LPS treated lung, 18 hr) was “less prominent”, the “lung histology, β-NAD alone” value (LPS-induced ALI in mice [5]; β-NAD alone, no LPS) was “no effect” and the “mortality, LPS vs. LPS/β-NAD” value ([6]; 15 day study) was “significantly reduced morality”. For the same molecule, the “survival after LPS challenge” value ([6]; LPS 20 mg/kg i.p., β-NAD 100 mg/kg i.p. twice a day, 4 days) was “recovered and lived longer”, the “survival, β-NAD alone” value ([6]; β-NAD alone, no LPS) was “no effect” and the “MPO staining of lung sections (neutrophil infiltration)” value (Myeloperoxidase (MPO); LPS with β-NAD treatment) was “attenuated the LPS-induced myeloperoxidase”. For the same molecule, the “MPO activity in lungs” value (Myeloperoxidase (MPO); LPS/b-NAD vs LPS challenged mice) was “attenuated MPO activity” and the “MPO activity in lungs, β-NAD alone” value (Myeloperoxidase (MPO); β-NAD alone, no LPS) was “no effect”.
